From patent publication US20250145589A1, “PYRIDINE DERIVATIVE AND USE THEREOF” (SICHUAN HUIYU PHARMACEUTICAL CO., LTD., priority 2021, published 2025)

Key:
[1] = system: MIA PaCa-2 cells (KRAS G12C mutant); assay: MIA PaCa-2 cell anti-proliferation (CellTiter-Glo); assay type: cell-based; details: Homo sapiens, 72 h; MIA Paca-2 cells, 3 days, Table 7; read-out: MIA PaCa-2 (IC50)
Summary of the method: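 Viable-cell luminescence (CellTiter-Glo, ≥30 min at 25 °C) measured after a 3-day, 37 °C exposure to compounds at 9 points, 4-fold spaced, in DMEM containing 10% FBS plus 2.5% horse serum. IC50 derived versus no-inhibitor wells.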

[2] = system: MIA PaCa-2-AMGR drug-resistant cell line; assay: MIA PaCa-2-AMGR drug-resistant cell proliferation inhibitory activity test; assay type: cell-based; details: 72 h, MIA PaCa-2-AMGR drug-resistant cells, 3 days incubation, CellTiter-Glo
Summary of the method: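 MIA PaCa-2 line made resistant by stepwise AMG510 exposure up to 1 μM. Cells seeded at 4×10^3/well overnight, then treated with 8 concentrations (5-fold dilutions) for 3 days at 37° C, 5% CO2 in DMEM with 10% FBS + 2.5% horse serum. Viability by CellTiter-Glo luminescence; IC50 versus no-inhibitor control.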

Compound	IC50 [1] [nM]	IC50 [2] [nM]
COc1ncc(-c2ccc3ncnc(C4CCN(C(=O)/C=C/C(C)=O)CC4)c3n2)cc1NS(=O)(=O)c1c(F)cccc1F [Example 233, (E)-2,6-difluoro-N-(2-methoxy-5-(4-(1-(4-oxopent-2-enoyl)piperidin-4-yl)pyrido[3,2-d]pyrimidin-6-yl)pyridin-3-yl)benzenesulfonamide]	14.2	16.7
COc1ncc(-c2ccc3ncnc(C4CCN(C(=O)/C=C/C(C)=O)CC4)c3n2)cc1NS(=O)(=O)c1ccc(F)cc1F [Example 234, (E)-2,4-difluoro-N-(2-methoxy-5-(4-(1-(4-oxopent-2-enoyl)piperidin-4-yl)pyrido[3,2-d]pyrimidin-6-yl)pyridin-3-yl)benzenesulfonamide]	14.9	5.3
